SMILES strings stand for the structures. Counter-ions that a name gives are not always drawn.

What is called IC50 is the point on the concentration scale where inhibition reaches its midpoint. The melting point is the temperature of the solid-liquid transition.

For one data set, the target named is T1, DMT1 (Homo sapiens, UniProt P49281).
T1 sequence (P49281 1-568): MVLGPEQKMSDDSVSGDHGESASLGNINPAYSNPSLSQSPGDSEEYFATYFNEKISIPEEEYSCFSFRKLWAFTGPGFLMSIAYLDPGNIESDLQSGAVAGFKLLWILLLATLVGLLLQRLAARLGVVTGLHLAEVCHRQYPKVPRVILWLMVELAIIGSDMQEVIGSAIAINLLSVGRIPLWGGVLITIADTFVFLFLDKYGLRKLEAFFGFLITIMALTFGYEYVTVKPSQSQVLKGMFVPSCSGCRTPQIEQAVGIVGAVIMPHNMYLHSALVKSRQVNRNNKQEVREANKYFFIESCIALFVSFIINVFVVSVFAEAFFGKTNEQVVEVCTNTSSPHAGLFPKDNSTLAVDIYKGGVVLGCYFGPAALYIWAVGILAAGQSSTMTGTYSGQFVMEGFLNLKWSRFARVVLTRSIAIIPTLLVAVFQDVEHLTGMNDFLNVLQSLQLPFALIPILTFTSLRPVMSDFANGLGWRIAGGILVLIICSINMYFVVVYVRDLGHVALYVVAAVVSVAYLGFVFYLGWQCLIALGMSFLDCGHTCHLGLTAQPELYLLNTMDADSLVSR
The data set can be described thus: DMT1 Activity Assay (in vitro). Conditions: read-out: IC50 Activity Level. It is filed as cell-based. An excerpt:
In particular, identification of the compounds of the invention ability to modulate, preferably to inhibit, DMT1 activity, can be assessed using a variety of in vitro and in vivo assays, for measuring uptake of reduced iron (Fe^2+). One such protocol involves the screening of chemical agents for ability to modulate the activity of DMT1 thereby identifying it as a modulating agent. The in vitro activity of DMT1 can be measured in cell based assays by either directly measuring iron flux (using a radioactively labelled iron ^55Fe) or by measuring the fluorescence of a cell permeable iron fluorophore such as calcein. Stable cell lines overexpressing DMT1 are exposed to ^55Fe or loaded with calcein and then compound is applied. […] Alternatively, in another format electrophysiological techniques can be used to measure the current or iron or other metals traversing the cell membrane with DMT1 in a Xenopus oocyte or other cell based system (Gunshin et al., Nature, 1997, 31; 388(6641):482-8).
This example discloses various in vitro assay for testing and profiling test agents against DMT1 stably expressed in cells of either an endogenous or recombinant origin. These assays can use stable cell lines overexpressing DMT1 or intestinal cells and intestinal tissue expressing endogenous DMT1. DMT1 function could also be assessed in other cell types that express DMT1. Of greatest relevance would be the erythrocytes (e.g. K562 cells) or hepatocytes (e.g. […]).
DMT1 function can be assessed in a number of ways, including monitoring fluorescence changes of an iron fluorophore (e.g. calcein), monitoring uptake of radiolabelled iron (^55Fe or ^59Fe) (Picard et al., J. Biol. Chem., 2000, 275(46):35738-45 and Wetli et al., Chem. Biol. 2006 September; 13(9):965-72), or by assessing the current or transport of iron and other metals into the cells or tissues using standard electrophysiological techniques (Gunshin et al., Nature, 1997, 388(6641):482-8.).
Variations of these assays involve alterations of incubation times, the iron status of the cells and tissues (which may be modulated by chemical chelators or by harvesting from iron deficient animals), the metal cation detected and the pH of the reaction can generally be made by conventional techniques known to those skilled in the art.
As for `N=C(N)SCc1cccc2c1sc1c(CSC(=N)N)cccc12` [Example 1, dibenzo[b,d]thiophene-4,6-diylbis(methylene) dicarbamimidothioate dihydrobromide], the IC50 lay within 100 to 1000 nM.
Still for that read-out and setting: the result for `N=C(N)SCc1c(Br)ccc2c1sc1c(CSC(=N)N)c(Br)ccc12` [Example 1.1, (3,7-dibromodibenzo[b,d]thiophene-4,6-diyl)bis(methylene) dicarbamimidothioate dihydrobromide] reads 100 to 1000 nM; that for `N=C(N)SCc1cccc2c1sc1c(CSC(=N)N)c(Br)ccc12` [Example 1.2, (3-bromodibenzo[b,d]thiophene-4,6-diyl)bis(methylene) dicarbamimidothioate dihydrobromide], 100 to 1000 nM.
Same read-out and setting: the figure for `Cc1ccc2c(oc3c(CSC(=N)N)c(C)ccc32)c1CSC(=N)N` [Example 1.3, (3,7-dimethyldibenzo[b,d]furan-4,6-diyl)bis(methylene) dicarbamimidothioate dihydrobromide] is 100 to 1000 nM; for `N=C(N)SCc1c(F)ccc2c1oc1c(CSC(=N)N)c(F)ccc12` [Example 1.4, (3,7-difluorodibenzo[b,d]furan-4,6-diyl)bis(methylene) dicarbamimidothioate dihydrobromide] it is 10 to 100 nM.
The same measure, in the same setting: the figure for `N=C(N)SCc1c(Cl)ccc2c1oc1c(CSC(=N)N)c(Cl)ccc12` [Example 1.5, (3,7-dichlorodibenzo[b,d]furan-4,6-diyl)bis(methylene) dicarbamimidothioate] is 100 to 1000 nM.
Consider `N=C(N)SCc1cccc2c1oc1c(CSC(=N)N)cc(F)cc12` [Example 1.6, (2-fluorodibenzo[b,d]furan-4,6-diyl)bis(methylene) dicarbamimidothioate dihydrobromide], for which the 50% inhibitory concentration (IC50) fell in the range of 10 to 100 nM.
Regarding `N=C(N)SCc1cc(Br)cc2c1oc1c(CSC(=N)N)cc(Br)cc12` [Example 1.7, (2,8-dibromodibenzo[b,d]furan-4,6-diyl)bis(methylene) dicarbamimidothioate dihydrobromide], the concentration for half-maximal inhibition (IC50) was in the range of 10 to 100 nM.
Take `N=C(N)SCc1cccc2c1oc1c(CSC(=N)N)cccc12` [Example 1.8, dibenzo[b,d]furan-4,6-diylbis(methylene) dicarbamimidothioate dihydrobromide]: the concentration for half-maximal inhibition (IC50) was in the range of 10 to 100 nM.
Same read-out and setting: the figure for `N=C(N)SCc1cccc2cc3cccc(CSC(=N)N)c3cc12` [Example 1.9, anthracene-1,8-diylbis(methylene) dicarbamimidothioate dihydrobromide] is 100 to 1000 nM; for `N=C(N)SCc1cccc2c1sc1c(CSC(=N)N)cc(F)cc12` [Example 1.10, (2-fluorodibenzo[b,d]thiophene-4,6-diyl)bis(methylene) dicarbamimidothioate dihydrobromide] it is 100 to 1000 nM.
The same measure, in the same setting: the result for `N=C(N)SCc1cc(F)cc2c1sc1c(CSC(=N)N)cc(Cl)cc12` [Example 1.11, (2-chloro-8-fluorodibenzo[b,d]thiophene-4,6-diyl)bis(methylene) dicarbamimidothioate dihydrobromide] reads 10 to 100 nM.
The same measure, in the same setting: the result for `N=C(N)SCc1cccc2c1Oc1c(CSC(=N)N)cccc1S2` [Example 1.12, phenoxathiine-4,6-diylbis(methylene) dicarbamimidothioate dihydrobromide] reads 100 to 1000 nM; that for `N=C(N)SCc1c(Br)ccc2c1oc1c(CSC(=N)N)c(Br)ccc12` [Example 1.13, (3,7-dibromodibenzo[b,d]furan-4,6-diyl)bis(methylene) dicarbamimidothioate dihydrobromide], 100 to 1000 nM; that for `N=C(N)SCc1cccc2sc3cccc(CSC(=N)N)c3c12` [Example 1.14, dibenzo[b,d]thiophene-1,9-diylbis(methylene) dicarbamimidothioate dihydrobromide], at least 1000 nM.
As for `N=C(N)SCc1cccc2c1-c1c(CSC(=N)N)cccc1C2=O` [Example 1.15, (9-oxo-9H-fluorene-4,5-diyl)bis(methylene) dicarbamimidothioate dihydrobromide], the half-inhibitory concentration (IC50) was at least 1000 nM.
Still for that read-out and setting: the figure for `N=C(N)SCc1cccc2c(=O)c3cccc(CSC(=N)N)c3oc12` [Example 1.16, (9-oxo-9H-xanthene-4,5-diyl)bis(methylene) dicarbamimidothioate dihydrobromide] is at least 1000 nM.
The same measure, in the same setting: the figure for `Cc1c2cccc(CSC(=N)N)c2nc2c(CSC(=N)N)cccc12` [Example 1.17, (9-methylacridine-4,5-diyl)bis(methylene) dicarbamimidothioate dihydrobromide] is at least 1000 nM; for `N=C(N)SCc1cccc2cc3cccc(CSC(=N)N)c3nc12` [Example 1.18, acridine-4,5-diylbis(methylene) dicarbamimidothioate dihydrobromide] it is 100 to 1000 nM; for `N=C(N)SCc1cccc2c1-c1c(cccc1CSC(=N)N)CSC2` [Example 1.19, (5,7-dihydrodibenzo[c,e]thiepine-1,11-diyl)bis(methylene) dicarbamimidothioate dihydrobromide] it is at least 1000 nM.
Same read-out and setting: the figure for `N=C(N)SCc1cccc2c1C(=O)c1c(CSC(=N)N)cccc1-2` [Example 2, (9-oxo-9H-fluorene-1,8-diyl)bis(methylene) dicarbamimidothioate dihydrobromide] is 100 to 1000 nM; for `N=C(N)SCc1cccc2c1-c1c(CSC(=N)N)cccc1-2` [Example 2.1, biphenylene-1,8-diylbis(methylene)dicarbamimidothioate dihydrobromide] it is 10 to 100 nM; for `N=C(N)SCc1ccc(CSC(=N)N)c2c1-c1c(CSC(=N)N)ccc(CSC(=N)N)c1-2` [Example 3, biphenylene-1,4,5,8-tetrayltetrakis(methylene) tetracarbamimidothioate tetrahydrobromide] it is 100 to 1000 nM.
Turning to `CC(C)(C)c1cc(CSC(=N)N)c2c(c1)C(C)(C)c1cc(C(C)(C)C)cc(CSC(=N)N)c1O2` [Example 4, (2,7-di-tert-butyl-9,9-dimethyl-9H-xanthene-4,5-diyl)bis(methylene) dicarbamimidothioate dihydrobromide], the IC50 was at least 1000 nM.
Still for that read-out and setting: the result for `N=C(N)SCc1cc(F)cc2c1-c1c(CSC(=N)N)cc(F)cc1-2` [Example 5, (3,6-difluorobiphenylene-1,8-diyl)bis(methylene) dicarbamimidothioate dihydrobromide] reads 10 to 100 nM.

Tested on in the next data set: not given
Experiment: not given
Details: not given
As to `Cc1ccc2c(oc3c(CSC(=N)N)c(C)ccc32)c1CSC(=N)N` (as salt: hydrobromid) [Example 1.3, (3,7-dimethyldibenzo[b,d]furan-4,6-diyl)bis(methylene) dicarbamimidothioate dihydrobromide], the melting point is over 220 °C.
As to `N=C(N)SCc1cccc2c1oc1c(CSC(=N)N)cc(F)cc12` (as salt: hydrobromid) [Example 1.6, (2-fluorodibenzo[b,d]furan-4,6-diyl)bis(methylene) dicarbamimidothioate dihydrobromide], the melting point was over 220 °C.
Same read-out and setting: the result for `N=C(N)SCc1cc(Br)cc2c1oc1c(CSC(=N)N)cc(Br)cc12` (as salt: hydrobromid) [Example 1.7, (2,8-dibromodibenzo[b,d]furan-4,6-diyl)bis(methylene) dicarbamimidothioate dihydrobromide] reads over 220 °C.

Values taken from US20090069408A1, “TRICYCLIC COMPOUNDS USEFUL IN TREATING IRON DISORDERS” (XENON PHARMACEUTICALS INC., priority 2007, published 2009).
